This note sets out measurements from PMC8548536, “Establishment of high-throughput screening HTRF assay for identification small molecule inhibitors of Skp2-Cks1” (Scientific Reports, 2021).

Experiment [1] has as its target T1, S-phase kinase associated protein 2 (Skp2) (Homo sapiens, UniProt P61024+Q13309).
T1 construct: GST-Skp2/Skp1; with Skp1; Cks1 (His6-Cks1)
The experiment is described as follows: HTRF Skp2/Skp1-Cks1 binding inhibition assay; also CETSA of Skp2 in SGC-7901 cells. In general terms: Time-resolved FRET reads energy transfer from a long-lived donor to a nearby acceptor.

Experiment [2] deals with T1, S-phase kinase associated protein 2 (Skp2). Put plainly: HTRF Skp2/Skp1-Cks1 binding inhibition assay.

T1 sequence (Q13309 whole entry): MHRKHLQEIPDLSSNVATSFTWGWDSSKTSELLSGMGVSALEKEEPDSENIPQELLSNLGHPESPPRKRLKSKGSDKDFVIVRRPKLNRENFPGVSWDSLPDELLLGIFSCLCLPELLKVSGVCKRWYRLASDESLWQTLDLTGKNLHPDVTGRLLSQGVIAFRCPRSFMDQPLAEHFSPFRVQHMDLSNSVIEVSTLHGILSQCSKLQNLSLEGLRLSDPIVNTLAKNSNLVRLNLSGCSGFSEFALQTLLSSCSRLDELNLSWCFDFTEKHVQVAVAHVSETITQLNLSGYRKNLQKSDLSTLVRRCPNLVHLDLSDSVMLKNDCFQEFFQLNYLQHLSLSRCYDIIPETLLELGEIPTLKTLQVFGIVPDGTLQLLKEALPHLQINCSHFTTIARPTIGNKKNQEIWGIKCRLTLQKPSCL
T1 sequence (P61024 2-79): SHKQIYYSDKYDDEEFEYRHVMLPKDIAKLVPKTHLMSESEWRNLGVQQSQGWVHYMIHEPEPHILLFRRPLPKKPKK
T1 sequence (P63208 2-163 partner): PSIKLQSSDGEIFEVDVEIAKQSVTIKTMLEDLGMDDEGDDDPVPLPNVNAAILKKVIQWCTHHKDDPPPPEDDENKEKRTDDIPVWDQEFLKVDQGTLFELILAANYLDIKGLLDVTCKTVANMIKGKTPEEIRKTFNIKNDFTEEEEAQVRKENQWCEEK

As usually defined, the IC50 is the concentration at which inhibition is half-maximal. Low values mean greater potency, high ones weaker potency. Molecule `C=CC(=O)Nc1cccc(-c2nnc(SCc3ccccc3)n2C)c1` [SYK-031] came in with a half-maximal inhibitory concentration (IC50) in experiment [1] of 2.14 ± 0.76 µM. For the molecule `COC(=O)c1ccc(CCc2cc(O)ccc2O)cc1` [Skp2-1, NSC681152], in experiment [2], the IC50 is 58.7 ± 1.62 µM.

For `Cc1ccc(S(=O)(=O)Nc2cccc3cccnc23)cc1` [Skp2-2], the IC50 in experiment [1] was 27.8 ± 1.44 µM.
